Source: PMC6489322, “Biochemical characterization of recombinant Avihepatovirus 3C protease and its localization” (Virology Journal, 2019)

Target: T1, DHAV 3C protease (avihepatovirus A1, UniProt Q076B4)
T1 construct: mature 3C cut from the genome polyprotein (aa 1614-1794, 181 aa); N-terminal His6 tag, pET32a (NdeI/HindIII), E. coli BL21, Ni-NTA; tag removal not described
Assay: FRET peptide cleavage assay, inhibition
Type: biochemical
Settings: 5 uM protease, 20 uM Dabcyl-ASFMNQSKVRRFE-Edans; inhibitor at 50 and 100 uM; cleavage buffer (assay optimum pH 7.0, 150 mM NaCl, 37 °C)

CCOC(=O)/C=C/[C@H](C[C@@H]1CCNC1=O)NC(=O)[C@@H](CC(=O)[C@@H](NC(=O)c1cc(C)on1)C(C)C)Cc1ccc(F)cc1 [AG7088, Rupintrivir]
FRET peptide cleavage assay, inhibition: The results showed that AG7088 exhibited inhibitory activity against the DHAV 3C protease
